From article PMC7985203, “LLL12B, a small molecule STAT3 inhibitor, induces growth arrest, apoptosis, and enhances cisplatin-mediated cytotoxicity in medulloblastoma cells” (Scientific Reports, 2021)
Where two headings read alike, the source gives them in different places.

Columns and labels:
active caspase-3/7 = experiment: Apoptosis assay (Caspase-3/7 Fluorescence Assay Kit); assay type: cell-based, human; conditions: D425, D283, UW426 cells; LLL12B 1 μM, cisplatin 2.5 μM, 5 h
Protocol: Cells were plated in 96-well plates (8000–12,000 cells/well) and allowed to adhere overnight. Cells were treated with LLL12B or DMSO only. After 5 h treatment, active caspase-3/7 were measured using Caspase-3/7 Fluorescence Assay Kit (Cayman, Ann Arbor, MI) according to the manufacture’s instruction. Briefly, cells were centrifuged in the plate (800 g, 5 min) and the culture medium was aspirated, and then 200 µL of assay buffer was added to each well to wash the cells and the supernatant was removed after centrifuge. After that, 100 µL of cell-based assay lysis buffer was added to each well with shaking for 30 min at room temperature. Subsequently, 90 µL of the supernatant from each well was transferred to a corresponding well in a new black 96-well plate and 10 µL of assay buffer was added to appropriate wells. The plate was incubated at 37 °C for 90 min followed by addition of 100 µL of the caspase-3/7 substrate solution. Finally, the fluorescence intensity of each well was read at excitation 485 nm and emission 535 nm. All treatments were performed in triplicate.

[1] = tested on: D283 medulloblastoma cells; experiment: Tumorsphere formation, D283; assay type: cell-based, human; conditions: LLL12B 0.5 and 1 μM and/or cisplatin 0.5 and 1 μM, 8 days
Protocol: (§1) Cells were seeded (10,000 cells/mL) in ultra-low attachment 6-wells plates and treated with different concentrations of LLL12B and/or cisplatin or DMSO alone for 8 days. One-half of the culture volume of fresh 3D Tumorsphere Medium XF was added every 4 days. Images were captured on a Nikon Eclipse TS100 microscope. Original magnification, × 10.

[2] = tested on: D425 medulloblastoma cells; experiment: Tumorsphere formation, D425; assay type: cell-based, human; conditions: LLL12B 0.5 and 1 μM and/or cisplatin 0.5 and 1 μM, 8 days
Protocol: as §1

P-AKT = experiment: Western blot of P-AKT in medulloblastoma cells; assay type: cell-based, human; conditions: 4 or 8 h
[3] = tested on: INF-γ stimulated STAT1 phosphorylation; experiment: INF-γ induced P-STAT1 in DaoY cells (Western blot); assay type: cell-based, human; conditions: 1 and 2.5 μM for 4 h, then INF-γ 50 ng/mL 30 min
Source text: (§2) Cells was harvested and extracted using cell lysis buffer (Cell Signaling) supplemented with phosphatase and protease inhibitors. Tumors from mice were grinded in the liquid nitrogen, and extracted proteins using cell lysis buffer supplemented with phosphatase and protease inhibitors. Extracted protein samples were separated by 10% SDS-PAGE and transferred to polyvinylidene difluoride membranes. After blocking with TBS-T buffer containing 5% skim milk (Lab Scientific Inc) at room temperature for 1 h, each membrane was incubated at 4 °C overnight with one of the following primary antibodies at 1:1,000 dilution: rabbit anti-phosphorylated STAT3 (Y705), rabbit anti-STAT3, rabbit anti-phosphorylated STAT1 (Y701), rabbit anti-STAT1, rabbit anti-Cyclin D1, rabbit anti-Survivin, and rabbit anti-GAPDH. Subsequently, each membrane was washed with TBS-T and incubated with horseradish peroxidase-conjugated secondary antibody (1:10,000) at room temperature for 1.5 h. Proteins of interest were visualized using SUPERSIGNAL West Femto Maximum Sensitivity Substrate (Thermo, #34096). Quantification was performed using ImageJ.
(§3) To verify the selective toxicity of LLL12B, DaoY human medulloblastoma cell line was used and treated with LLL12B (1 and 2.5 μM) or DMSO for 4 h followed by induction of IL-6 or INF-γ (50 ng/mL) for 30 min. […]

P-ERK = experiment: Western blot of P-ERK in medulloblastoma cells; assay type: cell-based, human; conditions: 0.5 to 2.5 μM, 4 or 8 h
Cyclin D1 and Survivin = experiment: Western blot of STAT3 downstream targets in medulloblastoma cells; assay type: cell-based, human; conditions: D283, D425, UW426, UW288 cells; 0.5 to 2.5 μM, 16 h
Source text: as §2

[4] = tested on: D425 medulloblastoma cells; experiment: Pilot orthotopic tumor model in vivo; set-up: species or system mice
[5] = tested on: STAT3 phosphorylation (Y705); experiment: Western blot of STAT3 phosphorylation in medulloblastoma cells; assay type: cell-based, human
Source text: as §2

[6] = tested on: D425 medulloblastoma cells; experiment: MTT cell viability assay, D425; assay type: cell-based, human; conditions: 0.5 μM, 48 h, siRNA transfection experiment
Protocol: SignalSilence STAT3 siRNA I was purchased from Cell Signaling (#6580) and medulloblastoma cells were transfected using Lipofectamine 2000 reagent (Invitrogen). The sequence of STAT3 siRNA: GGUCCCUCAUCCUGUUUGU, ACAAACAGGAUGAGGGACC. AMBION SILENCER Negative Control siRNA (#AM4611) was purchased from Invitrogen. Cells were seeded in 96-well plates (8,000 cells/well) and allowed to adhere overnight. siRNA and Lipofectamine 2000 were diluted at 1:50 in Opti-MEM medium respectively. Gently mixed and incubated at room temperature for 5 min, and then the diluted siRNA was added to the diluted Lipofectamine 2000 reagent (1:1 ratio) with an additional incubation of 25 min. The final concentration of siRNA was 100 nM. After that, culture medium was replaced by Lipofectamine 2000 reagent: siRNA complexes and cultured for 24 h. After transfection, cells were treated with LLL12B or DMSO only for 48 h, and then cell viability was measured by MTT assay.
Cells were seeded in 96-well plates at a density of 3,000 cells. After overnight attachment, cells were treated with different concentrations of LLL12B and/or cisplatin or DMSO alone. After 72 h treatment, 20 μL of MTT solution was added for 4 h of additional culture, and then 150 μL of DMF solubilization solution was added with shaking overnight in the dark. Absorbance was measured at 595 nm. Combination index (CI) was calculated using ComuSyn software. […]

[7] = tested on: D425 medulloblastoma xenografts; experiment: D425 tumor xenograft model in nude mice; assay type: in vivo; conditions: for STAT3 phosphorylation in tumors: Western blot, LLL12B 2.5 mg/kg and/or cisplatin 5 mg/kg
Protocol: (§4) All animal studies were carried out in accordance with the standard procedures approved by the Institutional Animal Care and Use Committee (IACUC) of University of Maryland School of Medicine and University of Florida respectively. Furthermore, our animal studies were performed in compliance with the ARRIVE guidelines. Cells (1 × 10^7 cells/sites) were suspended in PBS mixed with matrigel (1:1, Corning, # 354234) and injected subcutaneously into the flank region of 4 to 5 week-old female athymic nude mice (Envigo). When the volume of the tumors reached approximately 100 mm^3, mice were randomized into four groups: (1) LLL12B (2.5 mg/kg) treated orally once daily only, (2) cisplatin (5 mg/kg) intraperitoneal injection treated once every four days only, (3) combination of LLL12B (2.5 mg/kg) oral once daily and cisplatin (5 mg/kg) intraperitoneal injection once every four days and (4) vehicle only once daily. Tumor growth was determined by measuring the minor (W) and major (L) diameter once every other day with a caliper, and calculated according to the following equation: tumor volume = 0.5236 × L × W^2. Body weight and clinical signs were monitored once every other day. In vivo PK studies in mice were performed by Dr. Chenglong Li’s laboratory at the University of Florida.
Figure 10 Anti-neoplastic activity of LLL12B and cisplatin combined treatment of D425 medulloblastoma xenografts. (A) Tumor volumes. (B) Tumor weights. (C) Body weights. (D) Protein analysis of the representative tumor samples by western blots. Expression levels of p-STAT3 (Y705), STAT3, CyclinD1, Survivin, and GAPDH. D245 medulloblastoma cells (1 × 10^7 cells/tumor) were implanted subcutaneously into the flank region of 4 to 5 week-old female athymic nude mice. Mice were randomized into four groups (5 mice for each group) and treated with LLL12B (2.5 mg/kg, oral gavage, once daily) and/or cisplatin (5 mg/kg, intraperitoneal injection, once every 4 days) or vehicle alone.

[8] = tested on: D283 medulloblastoma xenografts; experiment: D283 tumor xenograft model in nude mice; assay type: in vivo; conditions: for STAT3 phosphorylation in tumors: Western blot, LLL12B 2.5 mg/kg and/or cisplatin 5 mg/kg
Protocol: as §4
Figure 6 LLL12B suppressed tumor growth in medulloblastoma xenografts. (A) Tumor volume, (B) Tumor weights. (C) Tumor samples. (D) Body weights. (E) Western blot of tumor samples. The protein expression levels of P-STAT3(Y705), STAT3, and GAPDH. D283 cells (1 × 10^7 cells/tumor) were harvested and suspended in PBS and then implanted subcutaneously with matrigel (1:1 ratio) into the flank region of 4 to 5 week-old female athymic nude mice. Mice were randomized into three groups (6 mice for each group) and treated with LLL12B (2.5 mg/kg or 5 mg/kg, oral gavage, once daily).
Figure 9 LLL12B and cisplatin combination suppressed tumor growth in D283 medulloblastoma xenografts. (A) Tumor volumes. (B) Tumor weights. (C) Body weight. (D) Western blots to analyze protein expression in the representative tumor samples. Expression levels of p-STAT3(Y705), STAT3, CyclinD1, Survivin, and GAPDH. D283 medulloblastoma cells (1 × 10^7 cells/tumor) were implanted subcutaneously into the flank region of 4 to 5 week-old female athymic nude mice. Mice were randomized into four groups (5 mice for each group) and treated with LLL12B (2.5 mg/kg, oral gavage, once daily) and/or cisplatin (5 mg/kg, intraperitoneal injection, once every 4 days) or vehicle alone.

[9] = tested on: IL-6 induced phosphorylation of STAT3; experiment: IL-6 stimulated P-STAT3 in DaoY cells (Western blot); assay type: cell-based, human; conditions: 1 and 2.5 μM for 4 h, then IL-6 50 ng/mL 30 min
Source text: as §2, §3

[10] = In vivo pharmacokinetics (PK) in mice dosed PO
STAT3 protein = tested on: STAT3 protein; set-up: method as in PMID 32412740; conditions: intact MCF-7 breast cancer cells; cited from earlier work
[11] = LLL12B 2.5 mg/kg oral daily and/or cisplatin 5 mg/kg ip every 4 days

For `CN(C)C(=O)Oc1cccc2c1C(=O)c1cccc(S(N)(=O)=O)c1C2=O` [LLL12B], the “caspase-3/7 activation (apoptosis)” value (active caspase-3/7) was “increased”, the tumorsphere formation [1] was “numbers and sizes of tumorspheres decreased” and the tumorsphere formation [2] was “numbers and sizes of tumorspheres decreased”. The P-AKT (P-AKT; D283 cells, 0.5 to 2.5 μM) was “induced”, the P-AKT (P-AKT; UW288 cells, 0.5 to 2.5 μM) was “some inhibition” and the P-AKT (P-AKT; UW426 cells, 2.5 μM) was “bound back”. The P-AKT (P-AKT; UW426 cells, 0.5 and 1.0 μM) was “reduced”, the “induction of phosphorylated STAT1 protein by INF-γ” value [3] was “without affecting” and the P-ERK (P-ERK; D283 cells) was “did not generally inhibit”. For the same compound, the P-ERK (P-ERK; UW288 cells) was “some inhibition”, the P-ERK (P-ERK; UW426 cells) was “induced” and the “expression of Cyclin D1 and Survivin” value (Cyclin D1 and Survivin) was “downregulated”. The “survival of mice with tumors” value [4] was “limited extension of the survival”, the “STAT3 phosphorylation (Y705)” value ([5]; D283, D425, UW426, UW288 cells, 0.5 to 2.5 μM, 16 h) was “dose-dependently suppressed” and the P-STAT3 levels ([5]; UW426, UW288, D283 cells, 0.5, 1.0, 2.5 μM, 4 and 8 h) was “significantly reduced”. The cell viability [6] was “could impede cell viability”, the body weights [7, 11] was “little effect” and the “STAT3 phosphorylation in tumors” value [7] was “reduced”. For the same compound, the “suppression of tumor growth and tumor weights vs vehicle” value ([8]; 2.5 mg/kg oral gavage once daily) was ~ 40%, the “suppression of tumor growth and tumor weights vs vehicle” value ([8]; 5 mg/kg oral gavage once daily) was ~ 75% and the “body weight of mice” value ([8]; 2.5 or 5 mg/kg oral gavage once daily) was “no significant impact”. For the same compound, the “P-STAT3(Y705) level in tumors” value ([8]; 2.5 or 5 mg/kg oral, Western blot vs vehicle) was “dose-dependently down-regulated”, the body weights [8, 11] was “little effect” and the “STAT3 phosphorylation in tumors” value [8] was “reduced”. The “IL-6 induced phosphorylation of STAT3” value [9] was “significantly inhibited”, the “Cmax compared to LLL12” value ([10]; LLL12B 8 mg/kg vs LLL12 20 mg/kg) was “more than doubled” and the AUC ([10]; mouse, in vivo, 8 mg/kg) was 1.36 µM·h. It also gave a Cmax ([10]; mouse, in vivo, 8 mg/kg) of 278 nM, a bioavailability ([10]; mouse, in vivo, 8 mg/kg, read-out: Bioavailability (F)) of 47.7% and a Tmax ([10]; mouse, in vivo, po, 8 mg/kg, one time 8 mg/kg, read-out: oral Tmax) of about 8 h. It also gave a Tmax ([10]; mouse, in vivo, po, 8 mg/kg, read-out: Tmax) of 7.68 h.
For `NS(=O)(=O)c1cccc2c1C(=O)c1cccc(O)c1C2=O` [LLL12], the “binding to STAT3 protein in intact cells” value (STAT3 protein) is listed as “binds to STAT3 protein”, the “survival (average)” value ([4]; vehicle 19 days) is listed as 24 days and the AUCall ([10]; 20 mg/kg) is listed as 0.0407 µM·h. For the same compound, the “Bioavailability (F)” value ([10]; 20 mg/kg) was 2.73%, the Cmax ([10]; 20 mg/kg) was 176 nM and the Tmax ([10]; 20 mg/kg) was 0.083 h. For the same compound, the “oral Tmax” value ([10]; one time 20 mg/kg) was 5 min.
In the case of `N.N.[Cl][Pt][Cl]` [cisplatin], the “caspase-3/7 activation (apoptosis)” value (active caspase-3/7) is reported as “increased”, the “STAT3 phosphorylation in tumors” value [7] is reported as “reduce or partially reduce” and the “STAT3 phosphorylation in tumors” value [8] is reported as “reduce or partially reduce”.
